Laboratory results published in US12498382B2, “Biomarkers for vitiligo” (INCYTE CORPORATION, priority 2019, dated 2025).

Test system: HaCaT cells
Assay: Concentrations of inflammatory mediators produced by HaCaT cells stimulated with TNFα and IFNγ in presence/absence of JAK inhibitors (ProCarta)
Format: cell-based, human
Conditions: TNFα 25 ng/mL + IFNγ 25 ng/mL
Protocol: After 48 hours, cell culture media was removed from 24 well plates and replaced with 250 uL of media containing serial diluted drug, then incubated for 15 minutes at 37° C./5% CO2. […] The final concentration of Recombinant Human Interferon gamma and Recombinant Human Tumor Necrosis Factor alpha was 25 ng/mL of each cytokine. Cytokine stimulation added to wells containing drug brought the final concentrations for each drug treatment to 25 nM, 50 nM, 100 nM, and 200 nM. Treated plates were mixed by gentle agitation for 30 seconds then incubated for 24 hours at 37° C./5% CO2. At the end of the 24 hour incubation media was immediately removed from each plate.
Media was incubated with antibody conjugated beads designed to bind to the epitopes of specific target proteins and identify the bound protein through the bead's distinctive spectral pattern. Biotinylated detection antibodies, designed to bind to different epitopes of the same target proteins, and Streptavidin-PE are added to assay plates to quantify the amount of the target proteins. Assay plates were read on the Luminex 200 and data were expressed as Net Median Fluorescence Intensity. […] The concentration of each protein was extrapolated from the antigen standard curve and concentrations were expressed as pg/mL (Table 15).

Structure (SMILES): N#CCC1(n2cc(-c3ncnc4[nH]ccc34)cn2)CN(C2CCN(C(=O)c3ccnc(C(F)(F)F)c3F)CC2)C1 [Cpc B]
- BDNF concentration (drug 25 nM): 4.05 ± 0.19 pg/mL
- EGF concentration (drug 25 nM): 1.76 ± 0.17 pg/mL
- Eotaxin concentration (drug 25 nM): 10.22 ± 0.15 pg/mL
- FGF-2 concentration (drug 25 nM): 20.63 ± 1.49 pg/mL
- GM-CSF concentration (drug 25 nM): 130.13 ± 2.13 pg/mL
- GRO alpha concentration (drug 25 nM): 547.38 ± 31.41 pg/mL
- HGF concentration (drug 25 nM): 14.15 ± 0.3 pg/mL
- IFN alpha concentration (drug 25 nM): 0.24 ± 0.02 pg/mL
- IFN gamma concentration (drug 25 nM): 35023.68 ± 10759.49 pg/mL
- IL1RA concentration (drug 25 nM): 5944.59 ± 264.97 pg/mL
- IL1 alpha concentration (drug 25 nM): 7.34 ± 0.31 pg/mL
- IL1 beta concentration (drug 25 nM): 9.53 ± 0.3 pg/mL
- IL2 concentration (drug 25 nM): 33.62 ± 1.88 pg/mL
- IL4 concentration (drug 25 nM): 6.74 ± 1.65 pg/mL
- IL5 concentration (drug 25 nM): 27.31 ± 1.32 pg/mL
- IL6 concentration (drug 25 nM): 749.64 ± 32.94 pg/mL
- IL7 concentration (drug 25 nM): 2.14 ± 0.12 pg/mL
- IL8 concentration (drug 25 nM): 2837.03 ± 135.03 pg/mL
- IL9 concentration (drug 25 nM): 4.55 ± 0.85 pg/mL
- IL10 concentration (drug 25 nM): 0.87 ± 0.06 pg/mL
- IL12p70 concentration (drug 25 nM): 2.01 ± 0.21 pg/mL
- IL13 concentration (drug 25 nM): 2.79 ± 0.33 pg/mL
- IL15 concentration (drug 25 nM): 3.3 ± 0.93 pg/mL
- IL17A concentration (drug 25 nM): 4.6 ± 0.5 pg/mL
- IL18 concentration (drug 25 nM): 162.16 ± 4.98 pg/mL
- IL21 concentration (drug 25 nM): 2.66 ± 0.22 pg/mL
- IL22 concentration (drug 25 nM): 8.69 ± 0.42 pg/mL
- IL23 concentration (drug 25 nM): 7.28 ± 0.16 pg/mL
- IL27 concentration (drug 25 nM): 8.03 ± 1.71 pg/mL
- IL31 concentration (drug 25 nM): 3.6 ± 0.28 pg/mL
- IP-10/CXCL10 concentration (drug 25 nM): 4068.98 ± 507.12 pg/mL
- LIF concentration (drug 25 nM): 68.82 ± 2.51 pg/mL
- MCP1 concentration (drug 25 nM): 29762.04 ± 13226.23 pg/mL
- MIP1 alpha concentration (drug 25 nM): 103.81 ± 3.29 pg/mL
- MIP1 beta concentration (drug 25 nM): 319.77 ± 6.92 pg/mL
- PDGF-BB concentration (drug 25 nM): 5.19 ± 0.15 pg/mL
- PIGF-1 concentration (drug 25 nM): 56.69 ± 2.37 pg/mL
- RANTES concentration (drug 25 nM): 203.77 ± 12.55 pg/mL
- SCF concentration (drug 25 nM): 4.33 ± 0.18 pg/mL
- SDF-1 alpha concentration (drug 25 nM): 3430.87 ± 111.52 pg/mL
- TNF alpha concentration (drug 25 nM): 10574.99 ± 753.02 pg/mL
- TNF beta concentration (drug 25 nM): 4.91 ± 0.79 pg/mL
- VEGF-A concentration (drug 25 nM): 1249.75 ± 44.89 pg/mL
- VEGF-D concentration (drug 25 nM): 9.22 ± 0.87 pg/mL
- bNGF concentration (drug 25 nM): 7.7 ± 0.55 pg/mL
- BDNF concentration (drug 50 nM): 4.04 ± 0.24 pg/mL
- EGF concentration (drug 50 nM): 1.67 ± 0.15 pg/mL
- Eotaxin concentration (drug 50 nM): 9.92 ± 0.2 pg/mL
- FGF-2 concentration (drug 50 nM): 19.94 ± 1.49 pg/mL
- GM-CSF concentration (drug 50 nM): 128.05 ± 2.9 pg/mL
- GRO alpha concentration (drug 50 nM): 544.63 ± 38.3 pg/mL
- HGF concentration (drug 50 nM): 13.65 ± 0.53 pg/mL
- IFN alpha concentration (drug 50 nM): 0.26 ± 0 pg/mL
- IFN gamma concentration (drug 50 nM): 28977.92 ± 7400.61 pg/mL
- IL1RA concentration (drug 50 nM): 5840.44 ± 314.35 pg/mL
- IL1 alpha concentration (drug 50 nM): 7.06 ± 0.37 pg/mL
- IL1 beta concentration (drug 50 nM): 8.96 ± 0.43 pg/mL
- IL2 concentration (drug 50 nM): 31.96 ± 1.47 pg/mL
- IL4 concentration (drug 50 nM): 5.74 ± 1.1 pg/mL
- IL5 concentration (drug 50 nM): 25.5 ± 1.65 pg/mL
- IL6 concentration (drug 50 nM): 674.21 ± 27.15 pg/mL
- IL7 concentration (drug 50 nM): 1.9 ± 0.12 pg/mL
- IL8 concentration (drug 50 nM): 2862.21 ± 240.57 pg/mL
- IL9 concentration (drug 50 nM): 4.13 ± 0.43 pg/mL
- IL10 concentration (drug 50 nM): 0.85 ± 0.05 pg/mL
- IL12p70 concentration (drug 50 nM): 1.68 ± 0.21 pg/mL
- IL13 concentration (drug 50 nM): 2.73 ± 0.23 pg/mL
- IL15 concentration (drug 50 nM): 2.71 ± 0.65 pg/mL
- IL17A concentration (drug 50 nM): 4.09 ± 0.43 pg/mL
- IL18 concentration (drug 50 nM): 153.4 ± 3.46 pg/mL
- IL21 concentration (drug 50 nM): 2.45 ± 0.29 pg/mL
- IL22 concentration (drug 50 nM): 8.9 ± 0^ pg/mL
- IL23 concentration (drug 50 nM): 7.43 ± 0 pg/mL
- IL27 concentration (drug 50 nM): 6.95 ± 0.83 pg/mL
- IL31 concentration (drug 50 nM): 3.22 ± 0.38 pg/mL
- IP-10/CXCL10 concentration (drug 50 nM): 3872.74 ± 295.01 pg/mL
- LIF concentration (drug 50 nM): 67.89 ± 3.08 pg/mL
- MCP1 concentration (drug 50 nM): 27471.13 ± 12271.13 pg/mL
- MIP1 alpha concentration (drug 50 nM): 100.64 ± 4.66 pg/mL
- MIP1 beta concentration (drug 50 nM): 318.84 ± 8.17 pg/mL
- PDGF-BB concentration (drug 50 nM): 5.28 ± 0.18 pg/mL
- PIGF-1 concentration (drug 50 nM): 53.92 ± 2.81 pg/mL
- RANTES concentration (drug 50 nM): 198.35 ± 15.1 pg/mL
- SCF concentration (drug 50 nM): 4.16 ± 0.18 pg/mL
- SDF-1 alpha concentration (drug 50 nM): 3356.32 ± 136.22 pg/mL
- TNF alpha concentration (drug 50 nM): 11776.9 ± 1658.47 pg/mL
- TNF beta concentration (drug 50 nM): 4.13 ± 0.5 pg/mL
- VEGF-A concentration (drug 50 nM): 1242.76 ± 50.39 pg/mL
- VEGF-D concentration (drug 50 nM): 9.72 ± 0.75 pg/mL
- bNGF concentration (drug 50 nM): 7.09 ± 0.71 pg/mL
- BDNF concentration (drug 100 nM): 4.06 ± 0.26 pg/mL
- EGF concentration (drug 100 nM): 1.56 ± 0.2 pg/mL
- Eotaxin concentration (drug 100 nM): 10.09 ± 0.19 pg/mL
- FGF-2 concentration (drug 100 nM): 20.42 ± 1.5 pg/mL
- GM-CSF concentration (drug 100 nM): 133.06 ± 4.24 pg/mL
- GRO alpha concentration (drug 100 nM): 568.49 ± 35.18 pg/mL
- HGF concentration (drug 100 nM): 14.41 ± 0.55 pg/mL
- IFN alpha concentration (drug 100 nM): 0.26 ± 0 pg/mL
- IFN gamma concentration (drug 100 nM): 29276.66 ± 7697.74 pg/mL
- IL1RA concentration (drug 100 nM): 5953.24 ± 309.78 pg/mL
- IL1 alpha concentration (drug 100 nM): 7 ± 0.41 pg/mL
- IL1 beta concentration (drug 100 nM): 8.66 ± 0.41 pg/mL
- IL2 concentration (drug 100 nM): 31.33 ± 1.43 pg/mL
- IL4 concentration (drug 100 nM): 5.78 ± 0.72 pg/mL
- IL5 concentration (drug 100 nM): 26.52 ± 1.54 pg/mL
- IL6 concentration (drug 100 nM): 643.8 ± 27.14 pg/mL
- IL7 concentration (drug 100 nM): 2.12 ± 0.14 pg/mL
- IL8 concentration (drug 100 nM): 2980.9 ± 173.36 pg/mL
- IL9 concentration (drug 100 nM): 4.13 ± 0.43 pg/mL
- IL10 concentration (drug 100 nM): 0.88 ± 0.06 pg/mL
- IL12p70 concentration (drug 100 nM): 1.77 ± 0.18 pg/mL
- IL13 concentration (drug 100 nM): 2.55 ± 0.33 pg/mL
